Data from ChEMBL document CHEMBL5576125, “Discovery of Pyrazolopyrazines as Selective, Potent, and Mutant-Active MET Inhibitors with Intracranial Efficacy” (J Med Chem, 2024).
Calls of active or inactive are those of the source. No cut-off for these calls is given here.

Assays:
[1] = target: T1, Hepatocyte growth factor receptor (Homo sapiens, UniProt P08581, D1228N); test: Displacement of tracer 236 from N-terminal GST-tagged recombinant human MET D1228N mutant (956 to end residues) expressed in Sf9 insect cells incubated for 1 hr by TR-FRET assay
[2] = target: T1, Hepatocyte growth factor receptor; test: Inhibition of MET D1228N mutant (unknown origin) transfected in mouse NIH3T3 cells incubated for 1 hr by In-Cell Western assay; assay type: cell-based
[3] = Displacement of tracer 236 from N-terminal GST-tagged recombinant human MET exon 14 deletion mutant (956 to end residues) expressed in Sf9 insect cells incubated for 1 hr by TR-FRET assay
[4] = target: Hepatocyte growth factor receptor (Homo sapiens, UniProt P08581, Y1230H); test: Displacement of tracer 236 from N-terminal GST-tagged recombinant human MET Y1230H mutant (956 to end residues) expressed in Sf9 insect cells incubated for 1 hr by TR-FRET assay
[5] = Efflux ratio of apparent permeability across basolateral to apical over apical to basolateral side in MDCKII-MDR1 cells at 1 uM incubated for 2 hrs in orbital shaker by LC-MS/MS analysis; assay type: ADME, cell-based, Canis lupus familiaris; settings: dog, MDCK-MDR1
[6] = target: Hepatocyte growth factor receptor (Homo sapiens, UniProt P08581, F1200I); test: Displacement of tracer 236 from N-terminal GST-tagged recombinant human MET F1200I mutant (956 to end residues) expressed in Sf9 insect cells incubated for 1 hr by TR-FRET assay
[7] = Metabolic stability in mouse hepatocytes assessed as clearance at 2 uM measured upto 120 mins by LC-MS/MS analysis; assay type: ADME, cell-based, Hepatocyte
[8] = Apparent permeability across apical to basolateral side in MDCKII-MDR1 cells at 1 uM incubated for 2 hrs in orbital shaker by LC-MS/MS analysis; assay type: ADME, cell-based, Canis lupus familiaris; settings: dog, MDCK-MDR1
[9] = Displacement of tracer 236 from N-terminal GST-tagged recombinant human MET […] mutant (956 to end residues) expressed in Sf9 insect cells incubated for 1 hr by TR-FRET assay
[10] = Metabolic stability in human hepatocytes assessed as clearance at 2 uM measured upto 120 mins by LC-MS/MS analysis; assay type: ADME, cell-based, Hepatocyte
Hs746T [11] = test: Antitumor activity against human Hs746T cells expressing MET exon 14 skipping mutation with MET amplification xenografted in female athymic nude Foxn1nu mouse at 100 mg/kg, po qd administered for 14 days; assay type: functional, organism-based; settings: time 14.0 day
[12] = AUCinfinity in female athymic nude Foxn1nu mouse at 30 mg/kg, po administered as single dose and measured after 24 hrs by LC/MS analysis; assay type: ADME, organism-based; settings: in vivo
NIH3T3 [13] = test: (§1) Antitumor activity against mouse NIH3T3 cells expressing luciferase and human MET exon 14 deletion construct with MET-D1228N Type I resistance mutation implanted in female athymic nude Foxn1nu mouse assessed as animal survival rate at 100 mg/kg, po qd measured until 80 days relative to control; assay type: functional; settings: NIH3T3, 1920 h, time 80 day
Mus musculus = test: In vivo inhibition of MET in female athymic nude Foxn1nu mouse xenografted with human Hs746T cells expressing MET exon 14 skipping mutation with MET amplification assessed as reduction in phospho-MET protein level in tumor at 3 to 100 mg/kg, po administered as single dose measured after 2 to 8 hrs by ELISA relative to control; assay type: functional, organism-based; settings: dose 3-100 mg/kg, time 2-8 hrs
Cytochrome P450 = test: Inhibition of CYP450 (unknown origin); assay type: ADME, protein assay; settings: human
NIH3T3 [14] = test: as §1, with “median” for “animal”, “time” for “rate”, “30” for “100”, “bid” for “qd”, “after 29” for “until 80”, “(reference value: 15.5 day)” for “relative to control”; assay type: functional; settings: time 29 day
[15] = Tmax in female athymic nude Foxn1nu mouse at 30 mg/kg, po administered as single dose and measured after 24 hrs by LC/MS analysis; assay type: ADME, organism-based; settings: in vivo
[16] = target: T2, Vascular endothelial growth factor receptor 2 (Homo sapiens, UniProt P35968); test: Inhibition of VEGFR2 in human Flp-In-293 cells by ELISA; assay type: toxicity, cell-based
[17] = In vivo inhibition of MET in female athymic nude Foxn1nu mouse implanted with mouse NIH3T3 cells expressing luciferase and human MET exon 14 deletion construct with MET-D1228N Type I resistance mutation assessed as reduction in phospho-MET protein level in tumor by measuring residual activity at 30 to 100 mg/kg, po administered as single dose measured after 12 hrs by ELISA relative to control; assay type: functional; settings: dose 30-100 mg/kg
[18] = Ratio of unbound drug concentration in female athymic nude Foxn1nu mouse brain to plasma at 100 mg/kg, po administered as single dose and measured after 24 hrs by LC/MS analysis; assay type: ADME, organism-based; settings: read-out: K(p,uu,brain)
[19] = Clearance in female athymic nude Foxn1nu mouse at 1 mg/kg, iv administered as single dose and measured after 24 hrs by LC/MS analysis; assay type: ADME, organism-based; settings: in vivo
[20] = target: Macrophage-stimulating protein receptor (Homo sapiens) (UniProt Q04912); test: Inhibition of human RON incubated for 5 mins in presence of ATP by chelation-enhanced fluorescence based Beckman Coulter analysis relative to control
NIH3T3 [21] = test: as §1, with “reduction in tumor burden” for “animal survival rate”, “after 29” for “until 80”, “by luminescent imaging based analysis” for “relative to control”; assay type: functional, organism-based; settings: time 29.0 day
[22] = Cmax in female athymic nude Foxn1nu mouse plasma at 30 mg/kg, po administered as single dose and measured after 24 hrs by LC/MS analysis; assay type: ADME, organism-based
[23] = Volume of distribution at steady state in female athymic nude Foxn1nu mouse at 1 mg/kg, iv administered as single dose and measured after 24 hrs by LC/MS analysis; assay type: ADME, organism-based; settings: in vivo, read-out: Vdss
[24] = Ratio of unbound drug concentration in female athymic nude Foxn1nu mouse brain to plasma at 30 mg/kg, po administered as single dose and measured after 24 hrs by LC/MS analysis; assay type: ADME, organism-based; settings: read-out: K(p,uu,brain)
[25] = Hepatic extraction ratio in female athymic nude Foxn1nu mouse at 1 mg/kg, iv administered as single dose and measured after 24 hrs by LC/MS analysis; assay type: ADME, organism-based; settings: in vivo, read-out: ERH
NIH3T3 [26] = test: Antitumor activity against mouse NIH3T3 cells expressing luciferase and human MET exon 14 deletion construct with MET-D1228N Type I resistance mutation implanted in female athymic nude Foxn1nu mouse assessed as reduction in tumor burden at 30 mg/kg, po bid measured after 29 days by luminescent imaging based analysis; assay type: functional, organism-based; settings: time 29.0 day
[27] = Cmax in female athymic nude Foxn1nu mouse brain at 30 mg/kg, po administered as single dose and measured after 24 hrs by LC/MS analysis; assay type: ADME, organism-based; settings: in vivo
[28] = Half life in female athymic nude Foxn1nu mouse at 1 mg/kg, iv administered as single dose and measured after 24 hrs by LC/MS analysis; assay type: ADME, organism-based; settings: in vivo
Hs746T [29] = test: Antitumor activity against human Hs746T cells expressing MET exon 14 skipping mutation with MET amplification xenografted in female athymic nude Foxn1nu mouse at 3 to 30 mg/kg, po bid administered for 14 days; assay type: functional, organism-based; settings: dose 3-30 mg/kg, time 14.0 day
[30] = target: T2, Vascular endothelial growth factor receptor 2; test: Inhibition of VEGFR-2 (unknown origin) by cell based assay; assay type: toxicity

Sequence of Hepatocyte growth factor receptor (Homo sapiens, UniProt P08581, Y1230H) (P08581 25-1390 Y1230H limits assumed): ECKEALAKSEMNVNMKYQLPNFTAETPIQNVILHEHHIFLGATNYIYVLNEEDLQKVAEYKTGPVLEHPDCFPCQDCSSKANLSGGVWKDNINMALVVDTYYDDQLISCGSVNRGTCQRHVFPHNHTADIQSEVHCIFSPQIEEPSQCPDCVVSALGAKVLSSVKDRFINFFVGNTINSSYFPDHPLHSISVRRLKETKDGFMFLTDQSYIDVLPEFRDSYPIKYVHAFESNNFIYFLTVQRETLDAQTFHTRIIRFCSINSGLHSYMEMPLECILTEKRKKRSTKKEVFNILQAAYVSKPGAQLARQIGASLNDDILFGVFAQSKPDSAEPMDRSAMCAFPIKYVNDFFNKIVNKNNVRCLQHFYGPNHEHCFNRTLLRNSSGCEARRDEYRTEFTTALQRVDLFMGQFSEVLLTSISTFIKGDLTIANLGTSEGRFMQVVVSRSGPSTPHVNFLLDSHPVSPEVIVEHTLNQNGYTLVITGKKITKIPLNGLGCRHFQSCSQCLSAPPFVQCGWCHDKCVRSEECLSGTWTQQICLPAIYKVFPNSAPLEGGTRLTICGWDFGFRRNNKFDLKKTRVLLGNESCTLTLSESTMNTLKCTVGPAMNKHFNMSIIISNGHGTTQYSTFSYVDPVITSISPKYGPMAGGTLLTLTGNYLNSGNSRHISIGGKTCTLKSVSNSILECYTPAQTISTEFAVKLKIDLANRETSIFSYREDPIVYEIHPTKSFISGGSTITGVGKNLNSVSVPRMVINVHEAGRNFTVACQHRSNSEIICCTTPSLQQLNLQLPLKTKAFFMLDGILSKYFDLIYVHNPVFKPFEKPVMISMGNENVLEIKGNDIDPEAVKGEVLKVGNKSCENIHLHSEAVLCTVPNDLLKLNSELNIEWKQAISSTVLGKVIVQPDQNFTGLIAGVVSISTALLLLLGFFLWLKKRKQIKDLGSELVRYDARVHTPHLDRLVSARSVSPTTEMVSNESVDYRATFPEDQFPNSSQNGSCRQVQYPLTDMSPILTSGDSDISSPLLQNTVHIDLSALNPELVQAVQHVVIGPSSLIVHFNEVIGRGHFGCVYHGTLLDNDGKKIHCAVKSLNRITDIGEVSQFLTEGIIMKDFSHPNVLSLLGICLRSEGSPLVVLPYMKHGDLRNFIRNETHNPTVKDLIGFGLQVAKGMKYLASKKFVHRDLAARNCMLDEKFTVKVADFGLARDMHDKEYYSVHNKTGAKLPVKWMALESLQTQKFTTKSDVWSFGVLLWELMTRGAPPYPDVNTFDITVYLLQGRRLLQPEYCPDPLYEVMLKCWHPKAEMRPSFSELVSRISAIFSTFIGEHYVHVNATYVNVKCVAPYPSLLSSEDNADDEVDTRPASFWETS
T1 sequence (P08581 25-1390 D1228N limits assumed): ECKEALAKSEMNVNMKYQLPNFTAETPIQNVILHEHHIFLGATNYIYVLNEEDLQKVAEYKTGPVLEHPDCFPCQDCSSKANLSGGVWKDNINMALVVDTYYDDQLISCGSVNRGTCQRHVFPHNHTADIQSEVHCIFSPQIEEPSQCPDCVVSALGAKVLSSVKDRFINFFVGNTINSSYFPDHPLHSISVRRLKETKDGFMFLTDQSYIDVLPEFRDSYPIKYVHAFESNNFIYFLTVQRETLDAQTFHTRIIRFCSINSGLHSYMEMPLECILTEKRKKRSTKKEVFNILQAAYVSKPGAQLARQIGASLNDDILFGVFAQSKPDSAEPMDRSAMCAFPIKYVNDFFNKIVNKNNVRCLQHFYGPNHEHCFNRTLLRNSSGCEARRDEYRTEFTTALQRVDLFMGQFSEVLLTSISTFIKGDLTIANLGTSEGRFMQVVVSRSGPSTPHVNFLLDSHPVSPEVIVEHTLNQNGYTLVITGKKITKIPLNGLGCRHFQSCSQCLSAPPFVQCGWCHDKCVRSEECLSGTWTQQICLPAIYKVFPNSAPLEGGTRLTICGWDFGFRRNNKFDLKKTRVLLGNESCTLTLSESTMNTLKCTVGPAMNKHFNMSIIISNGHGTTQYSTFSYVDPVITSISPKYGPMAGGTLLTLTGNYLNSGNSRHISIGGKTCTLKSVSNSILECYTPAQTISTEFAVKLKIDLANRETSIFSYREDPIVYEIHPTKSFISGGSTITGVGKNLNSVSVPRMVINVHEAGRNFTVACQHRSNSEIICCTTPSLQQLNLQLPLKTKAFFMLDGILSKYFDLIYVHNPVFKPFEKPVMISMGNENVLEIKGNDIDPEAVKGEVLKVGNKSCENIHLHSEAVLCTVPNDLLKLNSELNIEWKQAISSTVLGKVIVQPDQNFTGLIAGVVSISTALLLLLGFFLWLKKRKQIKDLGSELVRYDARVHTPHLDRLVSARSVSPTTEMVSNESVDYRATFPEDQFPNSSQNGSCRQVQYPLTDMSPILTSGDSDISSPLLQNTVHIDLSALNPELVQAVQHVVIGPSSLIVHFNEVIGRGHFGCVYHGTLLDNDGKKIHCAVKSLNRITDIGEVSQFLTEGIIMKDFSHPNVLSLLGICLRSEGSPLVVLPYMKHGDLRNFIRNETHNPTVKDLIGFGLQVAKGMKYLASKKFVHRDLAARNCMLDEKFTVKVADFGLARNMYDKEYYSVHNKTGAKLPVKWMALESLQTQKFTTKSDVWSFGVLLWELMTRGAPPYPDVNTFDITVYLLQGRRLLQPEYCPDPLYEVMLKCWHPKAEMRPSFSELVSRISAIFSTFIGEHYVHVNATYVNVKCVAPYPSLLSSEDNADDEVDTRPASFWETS
T2 sequence (P35968 whole entry): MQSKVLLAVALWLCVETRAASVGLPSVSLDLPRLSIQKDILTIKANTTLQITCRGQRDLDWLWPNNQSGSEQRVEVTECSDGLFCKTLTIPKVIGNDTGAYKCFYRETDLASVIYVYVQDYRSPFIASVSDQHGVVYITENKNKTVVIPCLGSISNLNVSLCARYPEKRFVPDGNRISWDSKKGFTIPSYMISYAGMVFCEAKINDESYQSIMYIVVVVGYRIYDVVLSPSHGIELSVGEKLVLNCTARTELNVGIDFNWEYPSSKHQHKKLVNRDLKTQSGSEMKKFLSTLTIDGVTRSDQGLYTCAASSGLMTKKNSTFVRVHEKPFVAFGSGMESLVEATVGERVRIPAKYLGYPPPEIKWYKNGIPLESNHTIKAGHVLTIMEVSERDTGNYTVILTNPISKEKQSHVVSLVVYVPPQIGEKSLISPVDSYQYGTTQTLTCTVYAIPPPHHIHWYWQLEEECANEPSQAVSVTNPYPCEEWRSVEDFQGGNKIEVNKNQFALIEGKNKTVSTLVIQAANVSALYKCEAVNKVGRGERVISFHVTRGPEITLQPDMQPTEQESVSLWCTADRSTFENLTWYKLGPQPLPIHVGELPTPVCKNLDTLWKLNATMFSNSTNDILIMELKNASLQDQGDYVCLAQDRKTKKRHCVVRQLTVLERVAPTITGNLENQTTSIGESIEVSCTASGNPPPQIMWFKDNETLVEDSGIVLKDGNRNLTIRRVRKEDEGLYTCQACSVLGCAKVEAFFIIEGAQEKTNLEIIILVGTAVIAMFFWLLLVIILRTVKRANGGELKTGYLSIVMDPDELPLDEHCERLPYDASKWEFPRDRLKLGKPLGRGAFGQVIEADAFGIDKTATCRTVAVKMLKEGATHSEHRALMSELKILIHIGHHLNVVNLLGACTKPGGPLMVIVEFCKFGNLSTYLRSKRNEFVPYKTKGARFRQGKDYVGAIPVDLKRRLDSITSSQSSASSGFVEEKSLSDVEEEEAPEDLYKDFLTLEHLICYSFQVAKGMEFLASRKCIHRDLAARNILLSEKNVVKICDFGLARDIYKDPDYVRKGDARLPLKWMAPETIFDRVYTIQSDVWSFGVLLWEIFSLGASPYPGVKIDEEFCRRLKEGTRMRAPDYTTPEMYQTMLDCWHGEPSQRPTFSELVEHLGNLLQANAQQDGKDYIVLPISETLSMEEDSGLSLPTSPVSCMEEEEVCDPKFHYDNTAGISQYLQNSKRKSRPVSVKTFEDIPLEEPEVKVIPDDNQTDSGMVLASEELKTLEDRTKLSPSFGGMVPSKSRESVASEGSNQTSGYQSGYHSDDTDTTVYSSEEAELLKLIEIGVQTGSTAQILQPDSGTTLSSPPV

## Cc1cc2c(N(c3cc(F)c(NC(=O)c4ccnn(-c5ccc(F)cn5)c4=O)cc3F)[C@H]3C[C@H](c4ccn(C)n4)C3)nccn2n1
[1]
  IC50: 1770 nM
[2]
  IC50: > 5000 nM
[3]
  IC50: 397 nM
[4]
  IC50: 758 nM
[5]
  efflux ratio at 2 h, 1 µM: 0.9
[6]
  IC50: 5000 nM

## Cn1ccc([C@H]2C[C@H](N(c3cc(F)c(NC(=O)c4ccnn(-c5ccc(F)cn5)c4=O)cc3F)c3cccn4nccc34)C2)n1
[7]
  CLhep predicted at 2 µM: 77 mL/min/kg
[8]
  Papp A→B at 2 h, 1 µM: 5 ×10⁻⁶ cm/s
[1]
  IC50: 5 nM
[2]
  IC50: 20 nM
[4]
  IC50: 4 nM
[9]
  IC50: 12 nM
[6]
  IC50: 36 nM
[10]
  CLhep predicted at 2 µM: 21 mL/min/kg

## Cn1ccc([C@H]2C[C@H](N(c3cc(Cl)c(NC(=O)c4ccnn(-c5ccc(F)cn5)c4=O)cc3F)c3nccn4nccc34)C2)n1
[7]
  CLhep predicted at 2 µM: 9 mL/min/kg
[8]
  Papp A→B at 2 h, 1 µM: 6 ×10⁻⁶ cm/s
[1]
  IC50: 21 nM
[2]
  IC50: 97 nM
[3]
  IC50: 12 nM
[4]
  IC50: 13 nM
[9]
  IC50: 125 nM
[5]
  efflux ratio at 2 h, 1 µM: 1
[6]
  IC50: 479 nM
[10]
  CLhep predicted at 2 µM: 5 mL/min/kg

## Cc1cc(N(c2nccn3nccc23)[C@H]2C[C@H](c3ccn(C)n3)C2)c(F)cc1NC(=O)c1ccnn(-c2ccc(F)cn2)c1=O
[7]
  CLhep predicted at 2 µM: 17 mL/min/kg
[8]
  Papp A→B at 2 h, 1 µM: 4 ×10⁻⁶ cm/s
[1]
  IC50: 10 nM
[2]
  IC50: 41 nM
[4]
  IC50: 5 nM
[9]
  IC50: 64 nM
[5]
  efflux ratio at 2 h, 1 µM: 0.9
[6]
  IC50: 217 nM
[10]
  CLhep predicted at 2 µM: 22 mL/min/kg

## CC(C)(C#N)CN(c1cc(F)c(NC(=O)c2ccnn(-c3ccc(F)cc3)c2=O)cc1F)c1cccn2nccc12
[1]
  IC50: 8 nM
[2]
  IC50: 25 nM
[4]
  IC50: 7 nM
[9]
  IC50: 53 nM
[6]
  IC50: 326 nM

## Cn1ccc([C@H]2C[C@H](N(c3cc(C(F)F)c(NC(=O)c4ccnn(-c5ccc(F)cn5)c4=O)cc3F)c3nccn4nccc34)C2)n1
[1]
  IC50: 79 nM
[2]
  IC50: 519 nM
[3]
  IC50: 13 nM
[4]
  IC50: 32 nM
[9]
  IC50: 942 nM
[6]
  IC50: 3280 nM

## Cn1ccc([C@H]2C[C@H](N(c3cc(F)c(NC(=O)c4ccnn(-c5ccc(F)cn5)c4=O)cc3F)c3nccn4nccc34)C2)n1
Hs746T [11]
  Activity: Active
[7]
  CLhep predicted at 2 µM: 35 mL/min/kg
[8]
  Papp A→B at 2 h, 1 µM: 8 ×10⁻⁶ cm/s
[12]
  AUC(0-inf): 113 µg·h/mL
NIH3T3 [13]
  survival at 100 mg/kg: 100%
Mus musculus
  inhibition: Active
[1]
  IC50: 6 nM
Cytochrome P450
  inhibition (INH): Not Active
NIH3T3 [14]
  MST: 33 days
[2]
  IC50: 23 nM
[15]
  Tmax: 2 h
[16]
  IC50: > 5000 nM
[3]
  IC50: 6 nM
[4]
  IC50: 5 nM
[17]
  Activity: <6%
[18]
  Kp uu at 24 h: 0.24
[19]
  clearance: 9.5 mL/min/kg
[9]
  IC50: 15 nM
[20]
  inhibition: > 50%
NIH3T3 [21]
  Activity: Active
[5]
  efflux ratio at 2 h, 1 µM: 1.1
[22]
  Cmax: 10500 ng/mL
[23]
  Vd: 1.3 L/kg
[24]
  Kp uu at 24 h: 0.11
[25]
  hepatic extraction ratio at 24 h: 0.106
NIH3T3 [26]
  Activity: Active
[6]
  IC50: 90 nM
[27]
  Cmax: 900 ng/mL
[28]
  half-life: 1.9 h
Hs746T [29]
  Activity: Active
[10]
  CLhep predicted at 2 µM: 13 mL/min/kg

## CCN(c1cc(F)c(NC(=O)c2ccnn(-c3ccc(F)cc3)c2=O)cc1F)c1cccn2nccc12
[1]
  IC50: 64 nM
[2]
  IC50: 198 nM
[3]
  IC50: 36 nM
[4]
  IC50: 38 nM
[9]
  IC50: 172 nM
[6]
  IC50: 622 nM

## O=C(Nc1cc(F)c(N(c2cccn3nccc23)C2CCC2)cc1F)c1ccnn(-c2ccc(F)cc2)c1=O
[1]
  IC50: 24 nM
[2]
  IC50: 158 nM
[3]
  IC50: 16 nM
[4]
  IC50: 30 nM
[9]
  IC50: 57 nM
[6]
  IC50: 222 nM

## COCCNCc1ccc(-c2cc3nccc(Oc4ccc(NC(=S)NC(=O)Cc5ccc(F)cc5)cc4F)c3s2)nc1 [GLESATINIB]
[30]
  IC50: 172 nM
